The source of these data is patent US8202865B2, “Oxadiazole derivatives” (Merck Serono SA, priority 2007, dated 2012).

Each structure is given as a SMILES string. Where a name gives a salt, the structure may show the parent alone.

The experiment has as its target T1, S1P1 (Homo sapiens, UniProt P21453).
T1 construct: expressed in transfected cells; host or cells: CHO cells (membranes)
Put plainly: 35S-GTPγS binding, S1P1 membranes. It is filed as biochemical. Conditions: membranes from CHO cells expressing S1P1; 60 min 30° C. The procedure:
Receptor binding assay: Membranes were prepared from CHO cells expressing S1P1 or S1P3 for use in ligand and […] binding studies. Cells were suspended in 50 mM TRIS, pH 7.4, 2 mM EDTA, 250 mM Sucrose (buffer A) and 1× Complete protease inhibitor cocktail (Roche), and disrupted at 4° C. by N2 decompression using a cell disruption bomb (Parr Instrument). Following centrifugation at 1000 RPM for 10 min at 4° C., the supernatant was suspended in buffer A and centrifuged again at 19000 RPM for 60 min at 4° C. The pellet was then suspended in 10 mM HEPES, pH 7.4, 1 mM EDTA, 250 mM Sucrose (Buffer B), and 1× Complete EDTA-free protease inhibitor cocktail and homogenized using a potter. Membranes were flash frozen in liquid N2 and stored at −80° C. [33P]sphingosine 1-phosphate (3000 Ci/mmol; American Radiolabeled Chemicals, Inc.) was added to test compounds in DMSO. Membranes and WGA SPA beads (GE Healthcare) were added to give a final volume of 100 μl in 96-well plates with assay concentrations of 25 pM or 10 pM [33P]sphingosine 1-phosphate (respectively for S1P1 or S1P3), 50 mM HEPES, pH 7.5, 5 mM MgCl2, 100 mM NaCl, 0.4% fatty acid-free BSA, 1-5 μg/well of proteins and 100 μg/well of WGA SPA beads. Binding was performed for 60 min at RT on a shaker and bound radioactivity was measured on a PerkinElmer 1450 MicroBeta counter. Specific binding was calculated by subtracting remaining radioactivity in the presence of 1000-fold excess of unlabeled S1P. Binding data were analyzed using the GraphPad Prism program.
Measurements of ^35S-GTPγS Binding: Membranes (1 to 10 μg protein) prepared as described above, were incubated in 96-well Scintiplates (PerkinElmer) with test compounds diluted in DMSO, in 180 μl of 20 mM HEPES, pH 7.4, 10 mM MgCl2, 2 μg/well Saponin, 0.2% fatty acid free BSA (Assay buffer), 140 mM NaCl and 1.7 μM GDP. The assay was initiated with the addition of 20 μl of 1.5 nM [35S]-GTPγS (1100 Ci/mmol; GE Healthcare) in assay buffer. After 60 min incubation at 30° C. on a shaker, plates were centrifuged for 10 min at 2000 RPM. Supernatant was discarded and membrane bound radioactivity was measured on a PerkinElmer 1450 MicroBeta counter. Triplicate samples were averaged and expressed as % response relative to S1P activation in absence of compound (n=2).
A general note: GTPγS resists hydrolysis and so accumulates on activated G proteins.

T1 sequence (P21453 whole entry, species assumed): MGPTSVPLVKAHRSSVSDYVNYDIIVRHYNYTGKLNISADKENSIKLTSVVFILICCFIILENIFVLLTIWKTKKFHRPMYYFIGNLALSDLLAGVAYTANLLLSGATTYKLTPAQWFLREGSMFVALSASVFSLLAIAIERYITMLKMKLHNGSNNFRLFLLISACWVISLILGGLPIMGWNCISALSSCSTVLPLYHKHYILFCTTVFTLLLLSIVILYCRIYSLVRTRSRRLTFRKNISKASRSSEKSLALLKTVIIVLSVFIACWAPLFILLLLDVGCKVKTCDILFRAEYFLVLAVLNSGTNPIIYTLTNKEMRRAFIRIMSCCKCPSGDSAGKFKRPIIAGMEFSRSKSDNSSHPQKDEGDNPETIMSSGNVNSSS

The term EC50 denotes the concentration that produces a half-maximal response. High values mean lower potency in that assay, low ones higher potency in that assay. In turn, `COCc1cc(-c2nc(-c3cccc(C(=O)NCCCC(=O)OC)c3)no2)ccc1-c1ccccc1C` [Example 137, Methyl 4-[(3-{5-[2-(methoxymethyl)-2′-methylbiphenyl-4-yl]-1,2,4-oxadiazol-3-yl}benzoyl)amino]butanoate] displayed an EC50 of 25 nM. This lies in the double-digit nanomolar range.
The figure for `CCc1nnn(CCNC(=O)c2ccc(-c3noc(-c4ccc(-c5ccccc5C)c(COC)c4)n3)cc2F)n1` [Example 180, N-[2-(5-ethyl-2H-tetrazol-2-yl)ethyl]-2-fluoro-4-{5-[2-(methoxymethyl)-2′-methylbiphenyl-4-yl]-1,2,4-oxadiazol-3-yl}benzamide] is 26 nM.
With `COCc1cc(-c2nc(-c3cccc(C(=O)NCCCC(=O)O)c3)no2)ccc1-c1ccccc1C` [Example 139, 4-[(3-{5-[2-(methoxymethyl)-2′-methylbiphenyl-4-yl]-1,2,4-oxadiazol-3-yl}benzoyl)amino]butanoic acid] the figure was 9.6 nM.
Turning to `COCc1cc(-c2nc(-c3cccc(COCC(=O)O)c3)no2)ccc1-c1ccccc1C` [Example 160, [(3-{5-[2-(methoxymethyl)-2′-methylbiphenyl-4-yl]-1,2,4-oxadiazol-3-yl}benzyl)oxy]acetic acid], the EC50 turned out to be 0.6 nM. This EC50 is about 16-fold lower than that of the molecule before.
With `Cc1ccccc1-c1ccc(-c2nc(-c3ccc(C(=O)O)c(Cl)c3)no2)cc1CS(C)(=O)=O` [Example 88, 2-chloro-4-(5-{2′-methyl-2-[(methylsulfonyl)methyl]biphenyl-4-yl}-1,2,4-oxadiazol-3-yl)benzoic acid] the figure was 4640 nM; with `Cc1cc(-c2nc(-c3ccc(C(=O)O)c(F)c3)no2)ccc1-c1c(C)noc1C` [Example 25, 4-{5-[4-(3,5-dimethylisoxazol-4-yl)-3-methylphenyl]-1,2,4-oxadiazol-3-yl}-2-fluorobenzoic acid], 14200 nM.
With `CCCN(CC(C)C)c1ccc(-c2nc(-c3ccc(C(=O)O)c(F)c3)no2)cc1NS(C)(=O)=O` [Example 66, 2-fluoro-4-(5-{4-[isobutyl(propyl)amino]-3-[(methylsulfonyl)amino]phenyl}-1,2,4-oxadiazol-3-yl)benzoic acid] the figure was 10000 nM.
With `COc1ccc(OC)c(-c2ccc(-c3nc(-c4ccc(C(=O)O)c(F)c4)no3)cc2C)c1` [Example 24, 4-[3-(2′,5′-dimethoxy-2-methylbiphenyl-4-yl)-1,2,4-oxadiazol-3-yl]-2-fluorobenzoic acid] the figure was 10400 nM; with `COCc1cc(-c2nc(-c3ccc(F)c(CN(C)CCC(=O)O)c3)no2)ccc1OC(C)C` [Example 157, N-(2-fluoro-5-{5-[4-isopropoxy-3-(methoxymethyl)phenyl]-1,2,4-oxadiazol-3-yl}benzyl)-N-methyl-beta-alanine, Hydrochloride salt], 4 nM; with `Cc1cc(-c2nc(-c3ccc(O)c(C(=O)O)c3)no2)ccc1-c1cscc1C` [Example 44, 2-hydroxy-5-{5-[3-methyl-4-(4-methyl-3-thienyl)phenyl]-1,2,4-oxadiazol-3-yl}benzoic acid], 1450 nM.
`Cc1cc(-c2nc(-c3ccc(C(=O)O)c(F)c3)no2)ccc1N1CCCCC1` [Example 16, 2-fluoro-4-[5-(3-methyl-4-piperidin-1-ylphenyl)-1,2,4-oxadiazol-3-yl]benzoic acid] registered an EC50 of 2060 nM.
With `COCc1cc(-c2nc(-c3ccc(C(=O)N4CC(F)(F)C4)c(F)c3)no2)ccc1-c1ccccc1C` [Example 175, 3-{4-[(3,3-difluoroazetidin-1-yl)carbonyl]-3-fluorophenyl}-5-[2-(methoxymethyl)-2′-methylbiphenyl-4-yl]-1,2,4-oxadiazole] the figure was 128 nM; with `COCc1cc(-c2nc(-c3cccc(COCC(=O)OC)c3)no2)ccc1-c1ccccc1C` [Example 159, Methyl [(3-{5-[2-(methoxymethyl)-2′-methylbiphenyl-4-yl]-1,2,4-oxadiazol-3-yl}benzyl)oxy]acetate], 2.9 nM; with `COc1ccc(-c2ccc(-c3nc(-c4ccc(C(=O)O)c(F)c4)no3)cc2C)c(OC)c1` [Example 20, 4-[3-(2′,4′-dimethoxy-2-methylbiphenyl-4-yl)-1,2,4-oxadiazol-3-yl]-2-fluorobenzoic acid], 10900 nM.
`Cc1ccccc1-c1ccc(-c2nc(-c3ccc(S(N)(=O)=O)cc3)no2)cc1C` [Example 40, 4-[5-(2,2′-dimethylbiphenyl-4-yl)-1,2,4-oxadiazol-3-yl]benzenesulfonamide]: the EC50 was 10 nM.
With `CC(C)COc1ncc(-c2nc(-c3ccc(OCC(=O)O)c(F)c3)no2)cc1Cl` [Example 49, {4-[5-(5-chloro-6-isobutoxypyridin-3-yl)-1,2,4-oxadiazol-3-yl]-2-fluorophenoxy}acetic acid] the figure was 1280 nM; with `COCCCc1cc(-c2nc(-c3ccc(C(=O)O)c(F)c3)no2)ccc1-c1ccccc1C` [Example 100, 2-fluoro-4-{5-[2-(3-methoxypropyl)-2′-methylbiphenyl-4-yl]-1,2,4-oxadiazol-3-yl}benzoic acid], 538 nM.
For `COCc1cc(-c2nc(-c3cccc(C(N)=O)c3)no2)ccc1-c1ccccc1C` [Example 182, 3-{5-[2-(methoxymethyl)-2′-methylbiphenyl-4-yl]-1,2,4-oxadiazol-3-yl}benzamide], the EC50 was determined as 11 nM. This EC50 is about 49-fold lower than that of the molecule before.
On to `CCc1ccccc1-c1ccc(-c2nc(-c3ccc(F)c(CN(C)CCC(=O)O)c3)no2)cc1COC` [Example 156, N-(5-{5-[2′-ethyl-2-(methoxymethyl)biphenyl-4-yl]-1,2,4-oxadiazol-3-yl}-2-fluorobenzyl)-N-methyl-beta-alanine, Hydrochloride salt], for which a half-maximal response (EC50) required 2.5 nM. This EC50 is about 4.4-fold lower than that of the molecule before.
`COCc1cc(-c2nc(-c3cccc(C(=O)NC4(C(=O)O)CC4)c3)no2)ccc1-c1ccccc1C` [Example 133, 1-[(3-{5-[2-(methoxymethyl)-2′-methylbiphenyl-4-yl]-1,2,4-oxadiazol-3-yl}benzoyl)amino]cyclopropanecarboxylic acid] registered an EC50 of 21.6 nM.
Regarding `O=C(O)c1ccc(-c2noc(-c3ccc(N4CCOCC4)c(C(F)(F)F)c3)n2)cc1F` [Example 17, 2-fluoro-4-{5-[4-morpholin-4-yl-3-(trifluoromethyl)phenyl]-1,2,4-oxadiazol-3-yl}benzoic acid], a half-maximal response (EC50) required 3450 nM.
With `COCc1cc(-c2nc(-c3cccc(C(=O)NCCC(=O)O)c3)no2)ccc1-c1ccccc1C` [Example 135, N-(3-{5-[2-(methoxymethyl)-2′-methylbiphenyl-4-yl]-1,2,4-oxadiazol-3-yl}benzoyl)-beta-alanine] the figure was 7.8 nM; with `COCc1cc(-c2nc(-c3ccc(C(=O)NC4(C(=O)O)CC4)c(F)c3)no2)ccc1-c1ccccc1C` [Example 120, 1-[(2-fluoro-4-{5-[2-(methoxymethyl)-2′-methylbiphenyl-4-yl]-1,2,4-oxadiazol-3-yl}benzoyl)amino]cyclopropanecarboxylic acid], 58 nM; with `COCc1cc(-c2nc(-c3cccc(C(=O)N(C)CC(=O)OC)c3)no2)ccc1-c1ccccc1C` [Example 136, Methyl N-(3-{5-[2-(methoxymethyl)-2′-methylbiphenyl-4-yl]-1,2,4-oxadiazol-3-yl}benzoyl)-N-methylglycinate], 46 nM.
The figure for `COC(=O)c1ccc(-c2noc(-c3ccc(N(C)C)c(NS(C)(=O)=O)c3)n2)cc1F` [Example 71, methyl 4-(5-{4-(dimethylamino)-3-[(methylsulfonyl)amino]phenyl}-1,2,4-oxadiazol-3-yl)-2-fluorobenzoate] is 481 nM; for `CCOC(=O)C1(NCc2cccc(-c3noc(-c4ccc(-c5ccccc5C)c(COC)c4)n3)c2)CC1` [Example 140, Ethyl 1-[(3-{5-[2-(methoxymethyl)-2′-methylbiphenyl-4-yl]-1,2,4-oxadiazol-3-yl}benzyl)amino]cyclopropanecarboxylate] it is 142 nM; for `COCc1cc(-c2nc(-c3ccc(OCC(=O)O)c(F)c3)no2)ccc1N1CCCCC1C` (stereo not shown) [Example 169, (2-fluoro-4-{5-[3-(methoxymethyl)-4-(2-methylpiperidin-1-yl)phenyl]-1,2,4-oxadiazol-3-yl}phenoxy)acetic acid, hydrochloride salt] it is 5.2 nM.
With `COc1cc(C(=O)O)ccc1-c1noc(-c2ccc(-c3ccccc3C)c(C)c2)n1` [Example 45, 4-[5-(2,2′-dimethylbiphenyl-4-yl)-1,2,4-oxadiazol-3-yl]-3-methoxybenzoic acid] the figure was 4480 nM.
